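The compound was tested at five concentrations on cells cultured in 96-well plates, with a 48-hour exposure period. Here, GI50 denotes the concentration required for 50% inhibition of growth.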 Activity calls are given as the source filed them. No stated cut-off is given here; in the data, active = GI50 up to about 1.1 µM and inactive = higher.
Columns and labels:
Assay in all cases: inhibition of tumour cell growth, NCI panel, 48 h
786-0 = system: 786-0
A549 = system: A549
ACHN = system: ACHN
CCRF-CEM = system: CCRF-CEM
COLO 205 = system: COLO 205
DLD-1 = system: DLD-1
DMS-114 = system: DMS-114
DMS-273 = system: DMS-273
EKVX = system: EKVX
HCC 2998 = system: HCC 2998
HCT-116 = system: HCT-116
HCT-15 = system: HCT-15
HL-60 = system: HL-60
HOP-62 = system: HOP-62
HOP-92 = system: HOP-92
HT-29 = system: HT-29
IGROV-1 = system: IGROV-1
K562 = system: K562
KM-20L2 = system: KM-20L2
KM12 = system: KM12
LOX IMVI = system: LOX IMVI
LXFL 529 = system: LXFL 529
M14 = system: M14
M19-MEL = system: M19-MEL
MOLT-4 = system: MOLT-4
Malme-3M = system: Malme-3M
NCI-H226 = system: NCI-H226
NCI-H23 = system: NCI-H23
NCI-H460 = system: NCI-H460
NCI-H522 = system: NCI-H522
OVCAR-3 = system: OVCAR-3
OVCAR-4 = system: OVCAR-4
OVCAR-5 = system: OVCAR-5
OVCAR-8 = system: OVCAR-8
RPMI-8226 = system: RPMI-8226
RXF 393 = system: RXF 393
RXF 631 = system: RXF 631
SF-268 = system: SF-268
SF-295 = system: SF-295
SF-539 = system: SF-539
SK-MEL-28 = system: SK-MEL-28
SK-MEL-2 = system: SK-MEL-2
SK-MEL-5 = system: SK-MEL-5
SK-OV-3 = system: SK-OV-3
SN12C = system: SN12C
SNB-19 = system: SNB-19
SNB-75 = system: SNB-75
SNB-78 = system: SNB-78
SR = system: SR
SW-620 = system: SW-620
TK-10 = system: TK-10
U-251 = system: U-251
UACC-257 = system: UACC-257
UACC-62 = system: UACC-62
UO-31 = system: UO-31
XF498 = system: XF498
A498 = system: A498
CAKI-1 = system: CAKI-1

Structure (SMILES): N/N=C(\c1nc2ccc(Cl)cc2nc1O)C(O)c1ccc(Cl)c(Cl)c1 (stereo unspecified)
- GI50 (786-0): 80.7 µM (inactive)
- GI50 (A549): > 100 µM (inactive)
- GI50 (ACHN): > 100 µM (inactive)
- GI50 (CCRF-CEM): > 100 µM (inactive)
- GI50 (COLO 205): 88.3 µM (inactive)
- GI50 (DLD-1): 46.7 µM (inactive)
- GI50 (DMS-114): > 100 µM (inactive)
- GI50 (DMS-273): 81.1 µM (inactive)
- GI50 (EKVX): > 100 µM (inactive)
- GI50 (HCC 2998): > 100 µM (inactive)
- GI50 (HCT-116): 48.1 µM (inactive)
- GI50 (HCT-15): > 100 µM
- GI50 (HL-60): > 100 µM (inactive)
- GI50 (HOP-62): > 100 µM (inactive)
- GI50 (HOP-92): > 100 µM (inactive)
- GI50 (HT-29): > 100 µM (inactive)
- GI50 (IGROV-1): > 100 µM (inactive)
- GI50 (K562): > 100 µM (inactive)
- GI50 (KM-20L2): > 100 µM (inactive)
- GI50 (KM12): 70.5 µM (inactive)
- GI50 (LOX IMVI): > 100 µM (inactive)
- GI50 (LXFL 529): > 100 µM (inactive)
- GI50 (M14): > 100 µM (inactive)
- GI50 (M19-MEL): > 100 µM (inactive)
- GI50 (MOLT-4): > 100 µM (inactive)
- GI50 (Malme-3M): > 100 µM (inactive)
- GI50 (NCI-H226): > 100 µM (inactive)
- GI50 (NCI-H23): > 100 µM (inactive)
- GI50 (NCI-H460): > 100 µM (inactive)
- GI50 (NCI-H522): > 100 µM (inactive)
- GI50 (OVCAR-3): > 100 µM (inactive)
- GI50 (OVCAR-4): 29.1 µM (inactive)
- GI50 (OVCAR-5): > 100 µM (inactive)
- GI50 (OVCAR-8): 72.6 µM (inactive)
- GI50 (RPMI-8226): > 100 µM (inactive)
- GI50 (RXF 393): > 100 µM (inactive)
- GI50 (RXF 631): > 100 µM (inactive)
- GI50 (SF-268): > 100 µM (inactive)
- GI50 (SF-295): > 100 µM (inactive)
- GI50 (SF-539): > 100 µM (inactive)
- GI50 (SK-MEL-28): > 100 µM (inactive)
- GI50 (SK-MEL-2): > 100 µM (inactive)
- GI50 (SK-MEL-5): > 100 µM (inactive)
- GI50 (SK-OV-3): > 100 µM (inactive)
- GI50 (SN12C): > 100 µM (inactive)
- GI50 (SNB-19): > 100 µM (inactive)
- GI50 (SNB-75): 31 µM (inactive)
- GI50 (SNB-78): > 100 µM (inactive)
- GI50 (SR): > 100 µM (inactive)
- GI50 (SW-620): 59.2 µM (inactive)
- GI50 (TK-10): > 100 µM (inactive)
- GI50 (U-251): > 100 µM (inactive)
- GI50 (UACC-257): > 100 µM (inactive)
- GI50 (UACC-62): > 100 µM (inactive)
- GI50 (UO-31): > 100 µM (inactive)
- GI50 (XF498): > 100 µM (inactive)

Structure (SMILES): COc1ccc(OC)c(NC(=O)C(=O)C(C(=O)c2ccccc2F)C2OC(=O)c3ccccc32)c1 (stereo unspecified)
- GI50 (A498): > 100 µM (inactive)
- GI50 (A549): 71.1 µM (inactive)
- GI50 (ACHN): 82.6 µM (inactive)
- GI50 (CAKI-1): 67.8 µM (inactive)
- GI50 (CCRF-CEM): 21.8 µM (inactive)
- GI50 (COLO 205): 48.3 µM (inactive)
- GI50 (DLD-1): 42 µM (inactive)
- GI50 (DMS-114): 20.8 µM (inactive)
- GI50 (DMS-273): 30.6 µM (inactive)
- GI50 (EKVX): 62.2 µM (inactive)
- GI50 (HCC 2998): 44.8 µM (inactive)
- GI50 (HCT-116): 37.3 µM (inactive)
- GI50 (HCT-15): 62.5 µM
- GI50 (HL-60): 34.8 µM (inactive)
- GI50 (HOP-62): 50.2 µM (inactive)
- GI50 (HOP-92): > 100 µM (inactive)
- GI50 (HT-29): 45.5 µM (inactive)
- GI50 (IGROV-1): 89.3 µM (inactive)
- GI50 (K562): 42.8 µM (inactive)
- GI50 (KM-20L2): 51.9 µM (inactive)
- GI50 (KM12): > 100 µM (inactive)
- GI50 (LOX IMVI): 25.2 µM (inactive)
- GI50 (LXFL 529): 77.3 µM (inactive)
- GI50 (M14): > 100 µM (inactive)
- GI50 (M19-MEL): 29.1 µM (inactive)
- GI50 (MOLT-4): 26.3 µM (inactive)
- GI50 (NCI-H226): 16.6 µM (inactive)
- GI50 (NCI-H23): 57.1 µM (inactive)
- GI50 (NCI-H460): 44.8 µM (inactive)
- GI50 (NCI-H522): 23.5 µM (inactive)
- GI50 (OVCAR-4): 66.8 µM (inactive)
- GI50 (OVCAR-5): 79.4 µM (inactive)
- GI50 (OVCAR-8): 35.1 µM (inactive)
- GI50 (RPMI-8226): 32.4 µM (inactive)
- GI50 (RXF 393): 25.5 µM (inactive)
- GI50 (RXF 631): 34.7 µM (inactive)
- GI50 (SF-268): 22.8 µM (inactive)
- GI50 (SF-295): 45.8 µM (inactive)
- GI50 (SF-539): 26.9 µM (inactive)
- GI50 (SK-MEL-28): 39.7 µM (inactive)
- GI50 (SK-MEL-2): 43.1 µM (inactive)
- GI50 (SK-MEL-5): 79.1 µM (inactive)
- GI50 (SK-OV-3): 59.4 µM (inactive)
- GI50 (SN12C): 35.9 µM (inactive)
- GI50 (SNB-19): 36 µM (inactive)
- GI50 (SNB-75): 39.7 µM (inactive)
- GI50 (SNB-78): 36.8 µM (inactive)
- GI50 (SR): 23.5 µM (inactive)
- GI50 (SW-620): 49.2 µM (inactive)
- GI50 (TK-10): > 100 µM (inactive)
- GI50 (U-251): 19.1 µM (inactive)
- GI50 (UACC-257): > 100 µM (inactive)
- GI50 (UACC-62): 36.4 µM (inactive)
- GI50 (UO-31): 50.6 µM (inactive)
- GI50 (XF498): 34.8 µM (inactive)
